Results from patent US8404650B2, “Methods of treating cancer with doxazolidine and prodrugs thereof” (priority 2005, dated 2013).
Like-named read-outs stand apart in the source and are kept apart here.

Tests used:
MCF-7 = test: Growth inhibition of MCF-7 sensitive breast cancer cells (colony formation, crystal violet); assay type: cell-based, human
Description: (§1) In vitro Activity. […] This cell suspension was dispensed in 200 μL aliquots (1000 cells/well) into the inside wells of 96-well tissue culture plates. Outside wells contained 200 μL of media. […] The medium was replaced with 90 μL of growth medium prior to addition of the drug. Doxaz was dissolved in DMSO at concentrations ranging from 50 μM to 1 mM. […] Serial dilutions (1:3 and 1:10) were made in sterile DMSO to yield seven solutions of decreasing drug concentration at 100× the respective working concentrations. […] Additionally, two lanes were treated with 10 μL of growth medium containing 10% sterile DMSO and one lane was treated with 90 μL of 1.5 M Tris HCl. […]
(§2) Cell growth inhibition experiments initially focused on MCF-7, MCF-7/Adr, SK-HEP-1, and Hep G2 cancer cells as well as rat cardiomyocytes as a measure of cardiotoxicity and Vero cells (green monkey kidney cells) as an additional measure of normal cell toxicity.
(§3) Activity of plasmin-activated prodrugs.
(§4) A more thorough characterization of the growth inhibition of a variety of cancer cells as well as rat cardiomyocytes by Formula IV (aFK-PABC-Doxaz) was evaluated in comparison with inhibition of growth by Doxaz, Dox and aFK-PABC-Dox. Cells were treated with drug for 3 h and colony growth was measured at 3 to 5 days when cells reached about 80% confluence. […] The breast cancer cell lines represent the multi-drug resistant (MDR) phenotype with MCF-7/Adr cells and a cell line that is transfected with the gene for urokinase plasminogen activator (uPA), the primary enzyme responsible for cleavage of plasminogen to plasmin. Rat cardiomyocytes served as a model for comparison of drug cardiotoxicity.

MCF-7/Adr = test: Growth inhibition of multidrug resistant MCF-7/Adr breast cancer cells (crystal violet); assay type: cell-based; details: for Growth inhibition IC50, MCF-7/Adr, 24 h: 24 h drug treatment
Description: as §1, §2, §3, §4

DU-145 = test: Growth inhibition of DU-145 prostate cancer cells; assay type: cell-based; details: for Cell growth inhibition IC50, DU-145: 24 h drug treatment, crystal violet
Description: as §1
(§5) SHP-77 small cell lung cancer cells were also of interest because they express modest amounts of both enzymes. Inhibition of the growth of cardiomyocytes was used as a measure of cardiotoxicity, and inhibition of the growth of Vero cells, green monkey kidney cells, was again used as another measure of toxicity to normal cells.
as §4, with “Cells were treated with drug for 3 h and colony growth was measured at 3 to 5 days when cells reached about 80% confluence.” left out

SK-HEP-1 = test: Growth inhibition of SK-HEP-1 liver cancer cells; assay type: cell-based, human; details: crystal violet; for Growth inhibition IC50, SK-HEP-1, 24 h: 24 h drug treatment
Source text: (§6) Cell growth inhibition experiments initially focused on MCF-7, MCF-7/Adr, SK-HEP-1, and Hep G2 cancer cells as well as rat cardiomyocytes as a measure of cardiotoxicity and Vero cells (green monkey kidney cells) as an additional measure of normal cell toxicity. […]

Hep G2 = test: Growth inhibition of Hep G2 liver cancer cells; assay type: cell-based, human; details: crystal violet; for Growth inhibition IC50, Hep G2, 24 h: 24 h drug treatment
Source text: as §6

[1] = test system: H9c2(2-1) rat cardiomyocytes; test: Growth inhibition of rat cardiomyocytes as a measure of cardiotoxicity; assay type: cell-based; details: for Growth inhibition IC50, H9c2(2-1), 24 h: 24 h drug treatment, crystal violet
Description: Biological activity of simple Doxazolidine carbamates. Since the prodrug carbamates were designed to be activated by carboxylesterases CES1 (hCE1) and/or CES2 (hiCE), cell lines of interest were measured for expression of the respective mRNAs using reverse transcription (RT) followed by PCR (polymerase chain reaction). Cancer cell lines investigated included SHP-77 resistant small cell lung, DU-145 prostate, MCF-7 sensitive breast, MCF-7/Adr resistant breast, SK-HEP-1 liver, and Hep G2 liver cells. As a measure of possible cardiotoxicity, H9c2(2-1) rat cardiomyocytes were also investigated. Cardiotoxicity is relevant because the ultimate product of metabolism and subsequent hydrolysis of these carbamates is doxorubicin, which is cardiotoxic. […] Additionally, the rat cardiomyocytes, H9c2(2-1), also express more CES2 than CES1.
Cell growth inhibition experiments initially focused on MCF-7, MCF-7/Adr, SK-HEP-1, and Hep G2 cancer cells as well as rat cardiomyocytes as a measure of cardiotoxicity and Vero cells (green monkey kidney cells) as an additional measure of normal cell toxicity. The butyl and pentyl carbamates inhibited the growth of MCF-7, MCF-7/Adr, and SK-HEP-1 cell lines with a 24 h drug treatment period with some selectivity for cancer cells over cardiomyocytes relative to growth inhibition by Dox as shown in Table 2. […] The relative inactivity of the ethyl carbamate may indicate that a substantial lipophilic interaction is required at the active site of the carboxylesterases to hold the Doxaz substrate.
Biological activity of Doxazolidine carbamates with self-eliminating spacer. […] SHP-77 small cell lung cancer cells were also of interest because they express modest amounts of both enzymes. Inhibition of the growth of cardiomyocytes was used as a measure of cardiotoxicity, and inhibition of the growth of Vero cells, green monkey kidney cells, was again used as another measure of toxicity to normal cells. They also show more activity against the cancer cells that express higher levels of CES1. Of particular note is the higher activity against Hep G2 cells than against SK-HEP-1 cells. […] The low toxicity of pentyl PABC-Doxaz to cardiomyocytes relative to the toxicity of Dox is encouraging and consistent with the low level of expression of CES1 in cardiomyocytes.
A more thorough characterization of the growth inhibition of a variety of cancer cells as well as rat cardiomyocytes by Formula IV (aFK-PABC-Doxaz) was evaluated in comparison with inhibition of growth by Doxaz, Dox and aFK-PABC-Dox. Cells were treated with drug for 3 h and colony growth was measured at 3 to 5 days when cells reached about 80% confluence. The cancer cells included one prostate cancer cell line (DU-145), three related breast cancer cell lines (MCF-7, MCF-7/Adr, and MCF-7 uPA), and one pancreatic cancer cell line (Mia PaCa-2). The breast cancer cell lines represent the multi-drug resistant (MDR) phenotype with MCF-7/Adr cells and a cell line that is transfected with the gene for urokinase plasminogen activator (uPA), the primary enzyme responsible for cleavage of plasminogen to plasmin. Rat cardiomyocytes served as a model for comparison of drug cardiotoxicity. Growth inhibition was also measured with added plasmin. aFK-PABC-Doxaz inhibited the growth of most of the cancer cells 0.5 log or more better than did aFK-PABA-Dox. Although not as dramatic, this differential response paralleled the differential response between Doxaz and Dox which is approximately two logs except for the MDR expressing, MCF-7/Adr cells which show more than three logs differential response. […] Addition of 0.01 unit/mL of plasmin has no effect on the activity of Dox but increases the activity of both aFK-PABC-Doxaz and aFK-PABC-Dox, in some cases by more than a log. Addition of 0.01 unit/mL plasminogen increases the activity of aFK-PABC-Doxaz on average by 0.3 log. […]

Vero cells = test: Growth inhibition of Vero cells as a measure of normal cell toxicity (MTT); assay type: cell-based, green monkey; details: 24 h drug treatment
Source text: as §2, §5

SHP-77 = test: Growth inhibition of SHP-77 small cell lung cancer cells; assay type: cell-based; details: 24 h drug treatment; crystal violet
Source text: as §5

MDA-MB-435 = test: Growth inhibition of MDA-MB-435 breast cancer cells; assay type: cell-based; details: 3 h drug treatment, growth at 5 days; read-out: IC50 MDA-MB-435
Description: (§7) In vitro Activity. […] This cell suspension was dispensed in 200 μL aliquots (1000 cells/well) into the inside wells of 96-well tissue culture plates. Outside wells contained 200 μL of media. […] The medium was replaced with 90 μL of growth medium prior to addition of the drug. Doxaz was dissolved in DMSO at concentrations ranging from 50 μM to 1 mM. […] Serial dilutions (1:3 and 1:10) were made in sterile DMSO to yield seven solutions of decreasing drug concentration at 100× the respective working concentrations. […] Additionally, two lanes were treated with 10 μL of growth medium containing 10% sterile DMSO and one lane was treated with 90 μL of 1.5 M Tris HCl. The cells were incubated at 37° C. for 3 h, at which time the drug solutions were replaced with 200 μL of fresh growth medium.
as §3

cancer cells [2] = details: background statement; cited from earlier work
cancer cells [3] = test: Cancer cell growth inhibition, statements over several or unnamed cell lines; assay type: cell-based; details: read-out: Cancer cell growth inhibition IC50 in the presence of plasmin
Description: as §7, §4

human plasmin = human plasmin (Homo sapiens, UniProt P00747); test: Plasmin activation of prodrug and release of Doxaz (HPLC); assay type: biochemical; details: 37° C.
human plasmin, sequence (P00747 581-810 limits assumed): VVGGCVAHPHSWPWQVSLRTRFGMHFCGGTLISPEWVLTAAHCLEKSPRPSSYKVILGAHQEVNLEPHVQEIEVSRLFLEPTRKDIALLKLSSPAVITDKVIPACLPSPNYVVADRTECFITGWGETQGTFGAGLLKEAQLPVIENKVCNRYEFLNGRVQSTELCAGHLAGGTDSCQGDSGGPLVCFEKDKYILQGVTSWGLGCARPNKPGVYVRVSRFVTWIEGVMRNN
human plasmin, sequence (P00747 97-580 partner limits assumed): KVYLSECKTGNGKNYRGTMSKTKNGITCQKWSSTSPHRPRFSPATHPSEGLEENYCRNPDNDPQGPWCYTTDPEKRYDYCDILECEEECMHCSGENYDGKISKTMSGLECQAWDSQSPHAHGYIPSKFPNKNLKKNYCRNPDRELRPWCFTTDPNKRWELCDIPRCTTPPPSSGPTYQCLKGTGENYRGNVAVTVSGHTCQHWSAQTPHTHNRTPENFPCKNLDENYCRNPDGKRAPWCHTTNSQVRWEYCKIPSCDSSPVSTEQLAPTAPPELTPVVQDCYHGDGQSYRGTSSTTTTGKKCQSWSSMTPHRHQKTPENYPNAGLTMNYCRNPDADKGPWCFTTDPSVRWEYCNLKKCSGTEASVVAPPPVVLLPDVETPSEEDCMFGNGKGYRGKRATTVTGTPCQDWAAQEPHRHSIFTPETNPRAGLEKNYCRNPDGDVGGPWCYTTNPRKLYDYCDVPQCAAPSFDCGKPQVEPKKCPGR
Description: Both Formulas IV and V were incubated with 15 μg/ml human plasmin and monitored by HPLC at 37° C. Just 4 min after the addition of plasmin, 20 percent of compound 10 was converted to Doxaz and roughly 50% of that Doxaz had hydrolyzed to Doxorubicin. Within 23 minutes, nearly all of the prodrug was converted to Doxaz and subsequently hydrolyzed to Doxorubicin.

Water solubility = assay type: physicochemical; details: as di-cation
[4] = 24 h drug treatment, crystal violet
[5] = 3 h drug treatment, crystal violet
[6] = Homo sapiens, NCI/ADR-RES, read-out: IC50 MCF-7/Adr

Compound	Growth inhibition IC50, MCF-7, 24 h (MCF-7; [4])	Growth inhibition IC50, MCF-7/Adr, 24 h (MCF-7/Adr; crystal violet)	Cell growth inhibition IC50, DU-145 (DU-145)	Growth inhibition IC50, SK-HEP-1, 24 h (SK-HEP-1)	Growth inhibition IC50, Hep G2, 24 h (Hep G2)	Growth inhibition IC50, H9c2(2-1), 24 h [1]	Growth inhibition IC50, Vero, 24 h (Vero cells)	Cell growth inhibition IC50, SHP-77 (SHP-77)	IC50 (MCF-7/Adr; [6])	also measured
CCCCOC(=O)Nc1ccc(COC(=O)N2COC3C(C)OC(OC4CC(O)(C(=O)CO)Cc5c(O)c6c(c(O)c54)C(=O)c4c(OC)cccc4C6=O)CC32)cc1 (stereo not shown) [Butyl PABC-Doxaz]	−4.1 ± 0.3 log of the molar concentration	−5.9 ± 0.06 log of the molar concentration	−6.3 ± 0.3 log of molar concentrations	−5.8 ± 0.04 log of the molar concentration	−7.7 ± 0.03 log of the molar concentration	−7.2 ± 0.2 log of the molar concentration	−6.1 ± 0.08 log of the molar concentration	−7.1 ± 0.1 log of molar concentrations		
COc1cccc2c1C(=O)c1c(O)c3c(c(O)c1C2=O)C[C@@](O)(C(=O)CO)C[C@@H]3O[C@H]1C[C@H](NCNC(=O)c2ccccc2O)[C@H](O)[C@H](C)O1 [DoxSF, doxsaliform, reference compound]										IC50 (MCF-7; 3 h drug treatment, growth at 5 days, read-out: IC50 MCF-7): 70 to 80 nM; IC50 (MCF-7/Adr; 3 h drug treatment, growth at 5 days, read-out: IC50 MCF-7/Adr): 800 to 2000 nM; IC50 (MDA-MB-435): 50 ± 9 nM; Less active than DoxF in cancer cell growth inhibition (cancer cells [2]): 50 fold
CCCCOC(=O)N1COC2C(C)OC(OC3CC(O)(C(=O)CO)Cc4c(O)c5c(c(O)c43)C(=O)c3c(OC)cccc3C5=O)CC21 (stereo not shown) [Doxaz Butyl Carbamate]	−6.1 ± 0.04 log of the molar concentration	−6.2 ± 0.3 log of the molar concentration	−6.4 ± 0.02 log of molar concentrations	−6.4 ± 0.2 log of the molar concentration	−6.7 ± 0.3 log of the molar concentration	−5.8 ± 0.2 log of the molar concentration	−6.3 ± 0.1 log of the molar concentration	−6.6 ± 0.3 log of molar concentrations		
CCOC(=O)N1COC2C(C)OC(OC3CC(O)(C(=O)CO)Cc4c(O)c5c(c(O)c43)C(=O)c3c(OC)cccc3C5=O)CC21 (stereo not shown) [Doxaz Ethyl Carbamate]		>−5 log of the molar concentration		>−6 log of the molar concentration	>−6 log of the molar concentration					Growth inhibition IC50, MCF-7, 3 h (MCF-7; [5]): >−6 log of the molar concentration; IC50 (MCF-7; 24 h drug treatment, crystal violet, read-out: Growth inhibition IC50, MCF-7, 24 h): > 1000 nM; Growth inhibition IC50, MCF-7/Adr, 3 h (MCF-7/Adr; [5]): −5.3 ± 0.04 log of the molar concentration; Growth inhibition IC50, SK-HEP-1, 3 h (SK-HEP-1; 3 h drug treatment): >−6 log of the molar concentration; Growth inhibition IC50, Hep G2, 3 h (Hep G2; 3 h drug treatment): >−6 log of the molar concentration; Growth inhibition IC50, H9c2(2-1), 3 h ([1]; 3 h drug treatment, MTT): −5.8 ± 0.2 log of the molar concentration
COc1cccc2c1C(=O)c1c(O)c3c(c(O)c1C2=O)C[C@@](O)(C(=O)CO)C[C@@H]3O[C@H]1C[C@H](N)[C@@H](O)[C@H](C)O1 [Epi, Epidoxorubicin, reference compound]									> 10000 nM	IC50 (MCF-7; Homo sapiens, MCF7, read-out: IC50 MCF-7, 3 h drug treatment, growth at 5 days): 200 nM; IC50 (DU-145; Homo sapiens, DU-145, read-out: IC50 DU-145): 380 ± 52 nM
COc1cccc2c1C(=O)c1c(O)c3c(c(O)c1C2=O)C[C@@](O)(C(=O)CO)C[C@@H]3O[C@H]1C[C@H]2[C@@H](OCN2C(=O)OCc2ccc(NC(=O)OCc3ccc(NC(=O)[C@H](CCCCN)NC(=O)[C@H](Cc4ccccc4)NC(=O)[C@@H](C)N)cc3)cc2)[C@H](C)O1 [Formula V]									100 nM	IC50 (MCF-7; Homo sapiens, MCF7, 3 h, read-out: IC50 MCF-7 + plasmin): 9 nM; IC50 (MCF-7; Homo sapiens, MCF7, read-out: IC50 MCF-7): 60 nM; IC50 (MCF-7/Adr; Homo sapiens, NCI/ADR-RES, 3 h, read-out: IC50 MCF-7/Adr + plasmin): 10 nM; IC50 (cancer cells [3]): 5 nM; Time until nearly all of the prodrug was converted to Doxaz (human plasmin; 15 μg/ml human plasmin): ≤ 23 min; Prodrug converted to Doxaz (human plasmin; 4 min after addition of 15 μg/ml human plasmin): 20%; Water solubility (Water solubility): excellent water solubility
